Reference: patent US20250367321A1, “COMPOSITIONS AND METHODS INVOLVING ADGRG6” (The Regents of the University of California, priority 2022, published 2025)

Key:
adenyl cyclase (AC) = test: cAMP levels after treatment with the AC inhibitor; format: cell-based, human; settings: for cAMP levels upon aAdo treatment: basal condition
Source text: (§1) CAMP is a well-known signaling molecule that initiates adipogenesis by increasing protein kinase A (pKA), which then phosphorylates early transcription factors, including C/EBPb. To test whether ADGRG6 might increase cAMP levels in preadipocytes, we measured CAMP levels in WT and ADGRG6 KO human preadipocytes in both basal condition and forskolin which is […], using ELISA. […] We also measured cAMP levels in human preadipocytes that overexpress ADGRG6. […] In order to test whether ADGRG6 can directly affect cAMP levels via adenyl cyclase (AC), that converts ATP to CAMP, we treated ADGRG6 overexpressing preadipocytes with 2′,5′-Dideoxyadenosine (aAdo), an inhibitor of AC. In the basal condition, cAMP levels were reduced in both WT and ADGRG6 overexpressing cells upon aAdo treatment (FIG. 4A). […] Furthermore, we also examined the downstream target of CAMP-PKA, CREB phosphorylation. […] In the stimulated condition, p-CREB increased in WT cells but not in ADGRG6 KO cells (FIG. 4B).

human preadipocytes = test: cAMP levels by ELISA, basal or forskolin-stimulated; format: cell-based; settings: WT human preadipocytes, forskolin treatment
Source text: as §1

C[C@H]1O[C@@H](n2cnc3c(N)ncnc32)C[C@@H]1O [aAdo, 2′,5′-Dideoxyadenosine]
cAMP levels upon aAdo treatment (adenyl cyclase (AC); ADGRG6 overexpressing preadipocytes): reduced
increase of cAMP levels in ADGRG6 overexpressing preadipocytes compared to WT (adenyl cyclase (AC); Ado stimulated condition): 25%
cAMP levels upon aAdo treatment (adenyl cyclase (AC); WT preadipocytes): reduced

C=C[C@@]1(C)CC(=O)[C@]2(O)[C@@]3(C)[C@@H](O)CCC(C)(C)[C@@H]3[C@H](O)[C@H](OC(C)=O)[C@@]2(C)O1 [forskolin]
increase in cAMP levels compared to the basal condition (human preadipocytes): 2 fold
